# From ChEMBL document CHEMBL1240296, “Pharmacological inhibitors of glycogen synthase kinase 3” (Trends Pharmacol Sci, 2004)
# Target: Glycogen synthase kinase-3 alpha (Homo sapiens, UniProt P49840)
# Sequence (P49840 whole entry): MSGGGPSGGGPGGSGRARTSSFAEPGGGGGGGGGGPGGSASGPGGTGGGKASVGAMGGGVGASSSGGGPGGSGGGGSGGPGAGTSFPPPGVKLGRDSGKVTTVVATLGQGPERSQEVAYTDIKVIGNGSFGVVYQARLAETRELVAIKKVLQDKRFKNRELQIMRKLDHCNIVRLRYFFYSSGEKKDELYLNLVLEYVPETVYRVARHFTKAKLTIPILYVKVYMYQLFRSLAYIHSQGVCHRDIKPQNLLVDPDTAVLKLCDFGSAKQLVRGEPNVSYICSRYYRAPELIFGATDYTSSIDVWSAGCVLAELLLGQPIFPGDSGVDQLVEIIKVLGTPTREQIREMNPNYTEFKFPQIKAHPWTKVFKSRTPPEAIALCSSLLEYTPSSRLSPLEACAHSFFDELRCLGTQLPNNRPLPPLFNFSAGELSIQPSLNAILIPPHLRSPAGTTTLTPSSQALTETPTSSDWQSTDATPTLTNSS
row,Compound,IC50
1,Nc1nc(NCCNc2ncc(-c3ncc[nH]3)c(-c3ccc(Cl)cc3Cl)n2)ccc1[N+](=O)[O-],0.65 nM

# Target: Glycogen synthase kinase-3 beta (Homo sapiens, UniProt P49841)
# Sequence (P49841 whole entry): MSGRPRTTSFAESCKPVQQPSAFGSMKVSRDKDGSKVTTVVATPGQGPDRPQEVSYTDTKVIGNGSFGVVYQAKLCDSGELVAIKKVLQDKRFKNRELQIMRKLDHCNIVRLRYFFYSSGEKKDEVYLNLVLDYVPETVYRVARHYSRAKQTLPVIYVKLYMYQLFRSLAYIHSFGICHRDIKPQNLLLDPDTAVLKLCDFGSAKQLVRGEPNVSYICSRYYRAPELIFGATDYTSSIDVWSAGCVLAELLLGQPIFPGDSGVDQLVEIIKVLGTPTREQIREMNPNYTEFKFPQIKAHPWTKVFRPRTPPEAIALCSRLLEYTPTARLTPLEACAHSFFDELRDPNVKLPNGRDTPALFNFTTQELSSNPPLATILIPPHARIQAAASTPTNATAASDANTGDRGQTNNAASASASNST
row,Compound,IC50
1,COc1cccc(-n2ncc3c(N/N=C/c4ccncc4)ncnc32)c1 [GW784752X],16 nM
2,O=C1NC(=O)C2=C1c1cn(c3ncccc13)CCCC1=CC=C(CCCn3cc2c2cccnc23)S1,36 nM
3,CN(C)CCCn1cc(C2=C(c3c[nH]c4ccccc34)C(=O)NC2=O)c2ccccc21 [GF-109203],190 nM
4,Cn1cc(C2=C(c3cn(CCCSC(=N)N)c4ccccc34)C(=O)NC2=O)c2ccccc21 [BISINDOLYLMALEIMIDE IX],3 nM
5,O=C1NC(=O)C2=C1c1cn(c3ncccc13)CCOCCOCCOCCOCCn1cc2c2cccnc21,34 nM
6,Nc1cccc(-c2cc3c(Oc4cccc(O)c4)ncnc3[nH]2)c1,30 nM

# System: not listed separately
# Assay: Inhibition of GSK3
row,Compound,IC50
1,CN1CC[C@H](c2c(O)cc(O)c3c(=O)cc(-c4ccccc4Cl)oc23)[C@H](O)C1 [ALVOCIDIB],450 nM
2,CC(C)c1c(-c2ccc(Cl)cc2)[nH]c2nccnc12,750 nM
3,NC1N=Nc2nc3ccccc3nc21 (configuration not stated),1000 nM
4,OCCCNc1cc(-c2ccnc(Nc3cccc(Cl)c3)n2)ccn1,10 nM
5,CN[C@@H]1C[C@H]2O[C@@](C)([C@@H]1OC)n1c3ccccc3c3c4c(c5c6ccccc6n2c5c31)C(=O)NC4 [STAUROSPORINE],15 nM
6,CCCCc1c(-c2ccc(O)cc2)[nH]c2nccnc12 [ALOISINE A],650 nM
7,COc1ccc2c(c1)/C(=C/c1cnc[nH]1)C(=O)N2 [SU-9516],330 nM
8,O=Nc1c(-c2c(O)[nH]c3ccccc23)[nH]c2ccccc12 [INDIRUBIN-3-MONOXIME],5 nM

# Target: Glycogen synthase kinase-3 (Homo sapiens, UniProt P49840+P49841)
# Type: protein assay
row,Compound,IC50
1,CN1CCN(c2ccc(NCCNc3ccc([N+](=O)[O-])c(N)n3)nc2-c2ccc(Cl)cc2Cl)C(=O)C1,4 nM

# Target: Cyclin-dependent kinase 1/cyclin B (Homo sapiens, UniProt P06493)
# Type: protein-complex assay
row,Compound,IC50
1,CC(C)c1c(-c2ccc(Cl)cc2)[nH]c2nccnc12,850 nM
2,Cn1cc(C2=C(c3ccc(Cl)cc3Cl)C(=O)NC2=O)c2ccccc21 [SB-216763],550 nM
3,NC1N=Nc2nc3ccccc3nc21 (configuration not stated),600 nM
4,CN(C)CCCn1cc(C2=C(c3c[nH]c4ccccc34)C(=O)NC2=O)c2ccccc21 [GF-109203],2300 nM
5,Nc1nc(NCCNc2ncc(-c3ncc[nH]3)c(-c3ccc(Cl)cc3Cl)n2)ccc1[N+](=O)[O-],3700 nM
6,Cn1sc(=O)n(Cc2ccccc2)c1=O,> 10000 nM
7,Ic1cccc(CSc2nnc(-c3ccncc3)o2)c1,> 10000 nM
8,O=C1NC(=O)C(c2ccccc2[N+](=O)[O-])=C1Nc1ccc(O)c(Cl)c1,900 nM

# Target: Cyclin-dependent kinase 2/cyclin A (Homo sapiens) (UniProt P24941+P20248+P78396)
# Assay: (§1) Inhibition of CDK2/cyclinA at 10 mM
# Type: protein-complex assay
row,Compound,inhibition
1,CN(C)CCC(=O)Nc1n[nH]c2nnc(-c3ccccc3)cc12,90%

# Target: Cyclin-dependent kinase 2/cyclin A (Homo sapiens, UniProt P24941)
# Assay: as §1
# Type: protein-complex assay
row,Compound,IC50
1,O=C1NC(=O)C(c2cccc(Cl)c2)=C1Nc1ccc(Cl)c(C(=O)O)c1,> 10000 nM
2,Nc1nonc1-n1nnc(-c2nnc(-c3ccncc3)[nH]2)c1CN1CCCCC1,> 250000 nM
